From US20240336567A1, “PESTICIDAL AND HERBICIDAL COMPOUNDS AND METHODS OF USE THEREOF” (AG Plenus Ltd, priority 2021, published 2024)

System: not listed separately
Assay: in vitro thermal shift (binding of compound to the target)
Conditions: thermal shift caused by binding of the compound to the (unnamed) target

Row | in vitro Thermal Shift | SMILES
1 | 15 °C | C[C@@H](N)COc1cccc(C(=O)O)n1 [Compound 174]
2 | 15 °C | C[C@H](N)COc1cccc(C(=O)O)n1 [Compound 175]
3 | 2 °C | CCOC(=O)CNC(=O)c1cccc(OCC(C)N)n1 (stereo not shown) [Compound 176]
4 | 6 °C | CCOC(=O)CCOC(=O)c1cccc(OCC(C)N)n1 (stereo not shown) [Compound 177]
5 | 1 °C | CCOC(=O)CNC(=O)c1cccc(OCC(C)N)c1 (stereo not shown) [Compound 178]
6 | 9 °C | CCOC(=O)COC(=O)c1cccc(OCC(C)N)n1 (stereo not shown) [Compound 179]
7 | 12 °C | COC(=O)COC(=O)c1cccc(OCC(C)N)n1 (stereo not shown) [Compound 180]
8 | 14 °C | CC(N)COc1cccc(C(=O)OCC(=O)O)n1 (stereo not shown) [Compound 181]
9 | 5 °C | CCCCOC(=O)c1cccc(OCC(C)N)n1 (stereo not shown) [Compound 184]
10 | 10 °C | C#CCOC(=O)c1cccc(OCC(C)N)n1 (stereo not shown) [Compound 185]
11 | 16 °C | CC(N)COc1cc(Cl)c(F)c(C(=O)O)c1 (stereo not shown) [Compound 186]
12 | 8 °C | COC(=O)c1cccc(OCC(C)N)n1 (stereo not shown) [Compound 218]
13 | 3 °C | CCOC(=O)c1cccc(OCC(C)N)n1 (stereo not shown) [Compound 219]

System: Arabidopsis thaliana
Assay: HTPS (high throughput on soil) - Dicot - Post-emergence
Assay type: in vivo
Conditions: N/A: not active, read-out: HTPS - Dicot - Post Max effect
Method: (§1) Arabidopsis thaliana seeds were sown in 96 well plates filled with irrigated Sweet sand (10%>clay) that is washed from salts and minerals using tap water. 5-10 seeds were sown in the center of each well. 7-8 days post sowing, at 2 true leaves stage, thinning out was performed to ensure that compound application is done on a single plant per well. The plates were placed in a controlled greenhouse in a random order inside a bath which allows flooding irrigation with tap water supplemented with a fertilizer. Applied compounds were dissolved into a final solution of 50% acetone, 49.9% DDW, 0.1% tween-20. A 96 well plate was used as a stock plate for preparing application solutions for 8 repeats. Each row contained different concentrations per chemical. Maximal concentration for application was 1.5 Kg/Ha and dilution factor is 2.5. Chemical application was performed one day after thinning out in a chemical hood. 5 μL applied on first two true leaves in each well using 12 channel pipettes. Data collection: RGB (red, green, blue) data for green area per well was documented using camera. Data is collected at a few time points during the experiment: one day after thinning and before chemical application, two-, six- or nine-days post application. During the last two documentations, visual phenotyping was performed. Data analysis: Given RGB results and visual phenotype scores, a student t-test conducted to compare between treatment and control performance for continuous data (RGB) and Fisher exact test to analyze the non-continuous data (phenotypic scores). Dose-Response curves are generated for each treatment to infer ED50 and max. inhibition parameters, using treatment's log concentration range as the […] variable and normalized green area. Plate imaging performed at 11 and 18 DAA. RGB data for green area per well was documented and used to extract % inhibition. Dose-Response curves were built for each treatment to infer ED50, ED75 and ED90 parameters, using treatment's log concentration range as the independent variable and normalized green area as the dependent variable. Treatments were compared to controls performance given RGB results and using student's t-test (p-val≤0.05).

Row | SMILES | Emax
14 | NC1CCCC1Oc1cccc(C(=O)O)n1 (stereo not shown) [Compound 173] | 100%
15 | C[C@@H](N)COc1cccc(C(=O)O)n1 [Compound 174] | 100%
16 | C[C@H](N)COc1cccc(C(=O)O)n1 [Compound 175] | 100%
17 | CCOC(=O)CNC(=O)c1cccc(OCC(C)N)n1 (stereo not shown) [Compound 176] | 100%
18 | CCOC(=O)CCOC(=O)c1cccc(OCC(C)N)n1 (stereo not shown) [Compound 177] | 100%
19 | CCOC(=O)CNC(=O)c1cccc(OCC(C)N)c1 (stereo not shown) [Compound 178] | 100%
20 | CCOC(=O)COC(=O)c1cccc(OCC(C)N)n1 (stereo not shown) [Compound 179] | 100%
21 | COC(=O)COC(=O)c1cccc(OCC(C)N)n1 (stereo not shown) [Compound 180] | 100%
22 | CC(N)COc1cccc(C(=O)OCC(=O)O)n1 (stereo not shown) [Compound 181] | 100%
23 | COC(=O)CCOC(=O)c1cccc(OCC(C)N)n1 (stereo not shown) [Compound 182] | 100%
24 | CC(N)COc1cccc(C(=O)OCCC(=O)O)n1 (stereo not shown) [Compound 183] | 100%
25 | CCCCOC(=O)c1cccc(OCC(C)N)n1 (stereo not shown) [Compound 184] | 100%
26 | C#CCOC(=O)c1cccc(OCC(C)N)n1 (stereo not shown) [Compound 185] | 100%
27 | CC(N)COc1cc(Cl)c(F)c(C(=O)O)c1 (stereo not shown) [Compound 186] | 100%
28 | COC(=O)c1cccc(OCC(C)N)n1 (stereo not shown) [Compound 218] | 100%
29 | CCOC(=O)c1cccc(OCC(C)N)n1 (stereo not shown) [Compound 219] | 100%

Same assay, conditions: from normalized green area, N/A: not active

Row | SMILES | HTPS - Dicot - Post ED50
30 | NC1CCCC1Oc1cccc(C(=O)O)n1 (stereo not shown) [Compound 173] | 463 g/ha
31 | C[C@@H](N)COc1cccc(C(=O)O)n1 [Compound 174] | 44 g/ha
32 | C[C@H](N)COc1cccc(C(=O)O)n1 [Compound 175] | 7 g/ha
33 | CCOC(=O)CNC(=O)c1cccc(OCC(C)N)n1 (stereo not shown) [Compound 176] | 85 g/ha
34 | CCOC(=O)CCOC(=O)c1cccc(OCC(C)N)n1 (stereo not shown) [Compound 177] | 27 g/ha
35 | CCOC(=O)CNC(=O)c1cccc(OCC(C)N)c1 (stereo not shown) [Compound 178] | 39 g/ha
36 | CCOC(=O)COC(=O)c1cccc(OCC(C)N)n1 (stereo not shown) [Compound 179] | 22 g/ha
37 | COC(=O)COC(=O)c1cccc(OCC(C)N)n1 (stereo not shown) [Compound 180] | 13 g/ha
38 | CC(N)COc1cccc(C(=O)OCC(=O)O)n1 (stereo not shown) [Compound 181] | 23 g/ha
39 | COC(=O)CCOC(=O)c1cccc(OCC(C)N)n1 (stereo not shown) [Compound 182] | 72 g/ha
40 | CC(N)COc1cccc(C(=O)OCCC(=O)O)n1 (stereo not shown) [Compound 183] | 17 g/ha
41 | CCCCOC(=O)c1cccc(OCC(C)N)n1 (stereo not shown) [Compound 184] | 36 g/ha
42 | C#CCOC(=O)c1cccc(OCC(C)N)n1 (stereo not shown) [Compound 185] | 30 g/ha
43 | CC(N)COc1cc(Cl)c(F)c(C(=O)O)c1 (stereo not shown) [Compound 186] | 200 g/ha
44 | COC(=O)c1cccc(OCC(C)N)n1 (stereo not shown) [Compound 218] | 14 g/ha
45 | CCOC(=O)c1cccc(OCC(C)N)n1 (stereo not shown) [Compound 219] | 48 g/ha

System: Arabidopsis thaliana
Assay: HTPS - Dicot - Pre-emergence
Assay type: in vivo
Conditions: N/A: not active
Method: as §1, with “area. These experiments are conducted similarly except that either Arabidopsis thaliana or Eragrostis teff seeds were sowed (5-10 or 5-7, respectively), plant thinning out was not performed, compound dissolved into a final solution of 50% acetone, 49.9% DDW, compound application was done at 30 μL volume per well directly on sowed soil before plant emergence and data was collected 10 or 7 days after chemical application on dicot or monocot plants, respectively.” for “area.”

Row | SMILES | HTPS - Dicot - Pre ED50
46 | C[C@@H](N)COc1cccc(C(=O)O)n1 [Compound 174] | 3.8 g/ha
47 | C[C@H](N)COc1cccc(C(=O)O)n1 [Compound 175] | 3.8 g/ha

Same assay, conditions: N/A: not active, read-out: HTPS - Dicot - Pre Max effect

Row | SMILES | Emax
48 | C[C@@H](N)COc1cccc(C(=O)O)n1 [Compound 174] | 100%
49 | C[C@H](N)COc1cccc(C(=O)O)n1 [Compound 175] | 100%
